Results on one substance are retold here after PMC4237199 (The Prostate, 2014).

This assay concerns the target Prostate-specific membrane antigen (PSMA), canine (Canis lupus, UniProt I4IY07). Description: HPLC-based enzyme inhibition assay. The assay is classed as biochemical.

Prostate-specific membrane antigen (PSMA), canine, sequence (I4IY07 29-779): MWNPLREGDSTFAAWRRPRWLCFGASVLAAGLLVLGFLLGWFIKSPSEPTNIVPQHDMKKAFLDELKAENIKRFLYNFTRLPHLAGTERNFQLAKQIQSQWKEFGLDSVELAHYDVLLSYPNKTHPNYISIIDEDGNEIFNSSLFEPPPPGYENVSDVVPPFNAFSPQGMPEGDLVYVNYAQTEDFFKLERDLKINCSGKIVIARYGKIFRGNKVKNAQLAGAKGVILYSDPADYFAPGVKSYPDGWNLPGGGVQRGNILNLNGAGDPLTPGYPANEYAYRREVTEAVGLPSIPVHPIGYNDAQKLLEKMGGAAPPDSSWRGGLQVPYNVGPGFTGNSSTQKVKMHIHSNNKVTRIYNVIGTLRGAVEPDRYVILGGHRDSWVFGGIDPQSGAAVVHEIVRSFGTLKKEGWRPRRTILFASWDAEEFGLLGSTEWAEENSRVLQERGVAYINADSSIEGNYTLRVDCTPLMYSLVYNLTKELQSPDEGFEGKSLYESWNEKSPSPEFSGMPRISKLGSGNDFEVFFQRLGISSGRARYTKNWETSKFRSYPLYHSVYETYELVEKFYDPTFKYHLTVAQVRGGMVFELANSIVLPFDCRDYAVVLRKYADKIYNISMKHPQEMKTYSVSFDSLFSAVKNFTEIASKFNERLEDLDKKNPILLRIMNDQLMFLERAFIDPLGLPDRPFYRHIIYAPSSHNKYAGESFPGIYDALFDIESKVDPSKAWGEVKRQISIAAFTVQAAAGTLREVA

The IC50 is the concentration that inhibits the measured activity by half. Low values mean inhibition by little substance, high ones a need for much substance. As to FAMX-CTT-54 [compound 2], the IC50 was 1.6 nM.
